Measured values taken from patent US9981963B2, “3-(1H-pyrazol-4-yl)-1H-pyrrolo[2,3-c]pyridine derivatives as NIK inhibitors” (Janssen Pharmaceutica NV, priority 2013, dated 2018).

Columns and labels:
[1] = target: T1, Recombinant Human NF-kappaB-inducing Kinase (NIK/MAP3K14) (Homo sapiens (Human), UniProt Q99558); assay: Biological Assay A: inhibition of recombinant human NIK/MAP3K14 activity (MSD, MBP substrate); details: 25 μM ATP, 10 nM NIK/MAP3K14, 1 h at 25° C.; averaged over all measurements on all batches; read-out: Biochemical (MSD MBP) IC50
T1 sequence (Q99558 whole entry): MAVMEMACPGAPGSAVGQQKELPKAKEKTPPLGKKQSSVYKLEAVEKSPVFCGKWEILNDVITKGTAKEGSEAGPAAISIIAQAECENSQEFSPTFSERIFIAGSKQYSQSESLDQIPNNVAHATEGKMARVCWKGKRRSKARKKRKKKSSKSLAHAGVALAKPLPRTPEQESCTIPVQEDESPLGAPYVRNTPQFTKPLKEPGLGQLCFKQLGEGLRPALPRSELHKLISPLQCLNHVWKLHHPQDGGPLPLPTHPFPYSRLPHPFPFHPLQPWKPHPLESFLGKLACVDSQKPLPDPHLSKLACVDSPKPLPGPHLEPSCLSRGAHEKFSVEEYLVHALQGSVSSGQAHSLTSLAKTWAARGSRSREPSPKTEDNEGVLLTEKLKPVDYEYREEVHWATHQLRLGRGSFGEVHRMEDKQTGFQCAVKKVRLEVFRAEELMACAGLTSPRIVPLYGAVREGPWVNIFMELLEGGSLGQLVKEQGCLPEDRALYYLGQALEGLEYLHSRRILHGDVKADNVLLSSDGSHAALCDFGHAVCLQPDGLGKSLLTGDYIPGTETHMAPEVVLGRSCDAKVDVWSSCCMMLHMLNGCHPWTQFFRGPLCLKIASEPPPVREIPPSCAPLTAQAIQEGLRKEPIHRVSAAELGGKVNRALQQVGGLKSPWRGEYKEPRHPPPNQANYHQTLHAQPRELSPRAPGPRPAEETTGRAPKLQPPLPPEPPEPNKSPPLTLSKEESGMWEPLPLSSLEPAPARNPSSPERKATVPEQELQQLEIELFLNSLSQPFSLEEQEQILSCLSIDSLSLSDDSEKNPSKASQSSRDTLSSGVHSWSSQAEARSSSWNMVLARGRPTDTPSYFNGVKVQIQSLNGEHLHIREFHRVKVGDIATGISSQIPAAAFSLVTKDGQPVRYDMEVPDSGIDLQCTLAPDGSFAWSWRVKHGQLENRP
Experimental: Inhibition of Recombinant Human NF-kappaB-inducing Kinase (NIK/MAP3K14) Activity
Assay buffer was 50 mM Tris pH 7.5 containing 1 mM EGTA (ethylene glycol tetraacetic acid), 1 mM DTT (dithiothreitol), 0.1 mM Na3VO4, 5 mM MgCl2, 0.01% Tween® 20. Assays were carried out in 384 well Mesoscale high binding plates which had been coated with myelin basic protein (MBP) and blocked with bovine serum albumin to prevent non-specific protein binding. All compounds tested were dissolved in dimethyl sulfoxide (DMSO) and further dilutions were made in assay buffer. Final DMSO concentration was 1% (v/v) in assays. Incubations consisted of compound (1% DMSO in control and blank wells), 25 μM Adenosine-5′-triphosphate (ATP), and 10 nM NIK/MAP3K14 substituting enzyme with buffer in the blank wells. Incubations were carried out for 1 h at 25° C. and were followed by washing and sequential incubation with rabbit anti-phospho-MBP and anti-rabbit Ig Sulfotag antibody before reading bound Sulfotag on a Mesoscale Discovery. Signal obtained in the wells containing blank samples was subtracted from all other wells and IC50's were determined by fitting a sigmoidal curve to % inhibition of control versus Log10 compound concentration.

[2] = target: T1, Recombinant Human NF-kappaB-inducing Kinase (NIK/MAP3K14); assay: Biological Assay A2: inhibition of auto-phosphorylation of recombinant human NIK/MAP3K14 (AlphaScreen); assay type: biochemical; details: 25 microM ATP, 0.2 nM GST-tagged NIK/MAP3K14, 1 h at 25° C., averaged values, read-out: Alpha-Screen IC50
Experimental: Inhibition of Auto-phosphorylation of Recombinant Human NF-kappaB-inducing Kinase (NIK/MAP3K14) Activity (AlphaScreen®)
NIK/MAP3K14 auto-phosphorylation activity was measured using the AlphaScreen® (αscreen) format (Perkin Elmer). All compounds tested were dissolved in dimethyl sulfoxide (DMSO) and further dilutions were made in assay buffer. Final DMSO concentration was 1% (v/v) in assays. Assay buffer was 50 mM Tris pH 7.5 containing 1 mM EGTA (ethylene glycol tetraacetic acid), 1 mM DTT (dithiothreitol), 0.1 mM Na3VO4, 5 mM MgCl2, 0.01% Tween® 20. Assays were carried out in 384 well Alphaplates (Perkin Elmer). Incubations consisted of compound, 25 microM Adenosine-5′-triphosphate (ATP), and 0.2 nM NIK/MAP3K14. Incubations were initiated by addition of GST-tagged NIK/MAP3K14 enzyme, carried out for 1 h at 25° C. and terminated by addition of stop buffer containing anti-phospho-IKK Ser176/180 antibody. Protein A Acceptor and Glutathione-Donor beads were added before reading using an EnVision® Multilabel Plate Reader (Perkin Elmer). Signal obtained in the wells containing blank samples was subtracted from all other wells and IC50's were determined by fitting a sigmoidal curve to % inhibition of control versus Log10 compound concentration.

[3] = test system: P-IKKα levels in L363 cells; assay: Biological Assay B: effect of compounds on P-IKKα levels in L363 cells; assay type: cell-based; details: Homo sapiens, L-363; L363 cells with BAFF, 2 hr treatment; averaged values; read-out: IKKα Cellular IC50
Experimental: Effect of Compounds on P-IKKα Levels in L363 Cells
All compounds tested were dissolved in DMSO and further dilutions were made in culture medium. Final DMSO concentration was 1% (v/v) in cell assays. The human L363 cells (ATCC) were cultured in RPMI 1640 medium supplemented with GlutaMax and 10% fetal calf serum (PAA). Cells were routinely maintained at densities of 0.2×10^6 cells per ml-1×10^6 cells per ml at 37° C. in a humidified 5% CO2 atmosphere. Cells were passaged twice a week splitting back to obtain the low density. Cells were seeded in 96 well plates (Nunc 167008) at 2×10^6 per ml media in a volume of 75 μl per well plus 25 μl 1 μg/ml recombinant human B-cell activating factor (BAFF/BLyS/TNFSF13B). Seeded cells were incubated at 37° C. in a humidified 5% CO2 atmosphere for 24 hr. Drugs and/or solvents were added (20 μl) to a final volume of 120 μl. Following 2 hr treatment plates were removed from the incubator and cell lysis was achieved by the addition of 30 μl 5× lysis buffer followed by shaking on a plate shaker at 4° C. for 10 min. At the end of this incubation lysed cells were centrifuged at 800×g for 20 min at 4° C. and the lysate was assessed for P-IKKα levels by sandwich immuno-assay carried out in anti-rabbit antibody coated Mesoscale plates. Within an experiment, the results for each treatment were the mean of 2 replicate wells. For initial screening purposes, compounds were tested using an 8 point dilution curve (serial 1:3 dilutions). For each experiment, controls (containing MG132 and BAFF but no test drug) and a blank incubation (containing MG132 and BAFF and 10 μM ADS125117, a test concentration known to give full inhibition) were run in parallel. The blank incubation value was subtracted from all control and sample values. To determine the IC50 a sigmoidal curve was fitted to the plot of % inhibition of control P-IKKα levels versus Log10 compound concentration.

JJN-3 cells = assay: Biological Assay C: antiproliferative activity on JJN-3 cells (CellTiter-Glo); assay type: cell-based; details: Homo sapiens, 72 hr of treatment, averaged values
Experimental: (§1) Determination of Antiproliferative Activity on LP-1, L-363 and JJN-3 Cells
(§2) All compounds tested were dissolved in DMSO and further dilutions were made in culture medium. Final DMSO concentration was 0.3% (v/v) in cell proliferation assays. Viability was assessed using CellTiter-Glo cell viability assay kit (Promega). The human LP-1, L-363 and JJN-3 cells (DSMZ) were cultured in RPMI 1640 medium supplemented with 2 mM L-glutamine, and 10% fetal calf serum (PAA). Cells were routinely kept as suspension cells at 37° C. in a humidified 5% CO2 atmosphere. Cells were passaged at a seeding density of 0.2×10^6/ml twice a week. Cells were seeded in black tissue culture treated 96-well plates (Perkin Elmer). Densities used for plating ranged from 2,000 to 6,000 cells per well in a total volume of 75 μl medium. After twenty four hours, drugs and/or solvents were added (25 μl) to a final volume of 100 μl. Following 72 hr of treatment plates were removed from the incubator and allowed to equilibrate to room temperature for approx 10 min. 100 μl CellTiter-Glo reagent was added to each well that was then covered (Perkin Elmer Topseal) and shaken on plate shaker for 10 min. Luminescence was measured on a HTS Topcount (Perkin Elmer). Within an experiment, the results for each treatment were the mean of 2 replicate wells. For initial screening purposes, compounds were tested using a 9 point dilution curve (serial 1:3 dilutions). For each experiment, controls (containing no drug) and a blank incubation (containing cells read at the time of compound addition) were run in parallel. The blank value was subtracted from all control and sample values. For each sample, the mean value for cell growth (in relative light units) was expressed as a percentage of the mean value for cell growth of the control.

L-363 cells = assay: Biological Assay C: antiproliferative activity on L-363 cells (CellTiter-Glo); assay type: cell-based; details: Homo sapiens, 72 hr of treatment, averaged values
Experimental: as §1, §2

LP-1 cells = assay: Biological Assay C: antiproliferative activity on LP-1 cells (CellTiter-Glo); assay type: cell-based; details: Homo sapiens, 72 hr of treatment, averaged values
Experimental: as §1, §2

| SMILES | IC50 [1] | IC50 [2] | IC50 [3] | EC50 (JJN-3 cells) | EC50 (L-363 cells) | EC50 (LP-1 cells) |
| --- | --- | --- | --- | --- | --- | --- |
| CC(C)(O)C#Cc1cc2c(-c3cn[nH]c3)cn(CC3COC3)c2cn1 [Compound 17] | 88 nM | 69 nM | 418 nM | 5860 nM | 11900 nM | > 30000 nM |
| CN1CCC(n2cc(-c3cn[nH]c3)c3cc(C#CC(C)(C)O)ncc32)CC1 [Compound 19] | 65 nM | 98 nM | 602 nM | 704 nM | 570 nM | 11600 nM |
| COCCn1cc(-c2cn[nH]c2)c2cc(C#CC(C)(C)O)ncc21 [Compound 16] | 92 nM | 99 nM | 523 nM | 4050 nM | 3140 nM | 20400 nM |
| CC(C)Cn1cc(-c2cn[nH]c2)c2cc(C#CC(C)(C)O)ncc21 [Compound 21] | 55 nM | 25 nM | 119 nM | 629 nM | 427 nM | 1120 nM |
| CCn1cc(-c2c[nH]nc2N)c2cc(C#CC(C)(C)O)ncc21 [Compound 3] | 58 nM | 28 nM | 173 nM | 2370 nM | 4040 nM | 7240 nM |
| CC(C)(O)C#Cc1cc2c(-c3cn[nH]c3)cn(CCC(C)(C)O)c2cn1 [Compound 20] | 29 nM | 30 nM | 187 nM | 2650 nM | 2260 nM | > 30000 nM |
| CCn1cc(-c2cn[nH]c2)c2cc(C#CC(C)(C)O)ncc21 [Compound 9] | 9 nM |  | 89 nM | 526 nM | 553 nM | 3060 nM |
| CC(O)(C#Cc1cc2c(-c3cn[nH]c3)c[nH]c2cn1)c1nccs1 (stereo not drawn) [Compound 7] | 9 nM | 9 nM | 882 nM | > 30000 nM | 5390 nM | > 30000 nM |
| CN1CC(n2cc(-c3cn[nH]c3)c3cc(C#CC(C)(C)O)ncc32)C1 [Compound 34] | 76 nM | 171 nM | 377 nM | 3660 nM | 2200 nM | > 30000 nM |
| CC(C)(O)C#Cc1cc2c(-c3cn[nH]c3)cn(C3CCC(CO)CC3)c2cn1 (stereo not drawn) [Compound 29] |  | 4 nM | 632 nM | 4170 nM | 2430 nM | 27200 nM |
| OCCn1cc(-c2cn[nH]c2)c2cc(C#CC3(O)CCCC3)ncc21 [Compound 13] | 14 nM | 17 nM | 242 nM | 23800 nM | 11000 nM | > 30000 nM |
| CC(C)(O)C#Cc1cc2c(-c3cn[nH]c3)cn(CCCO)c2cn1 [Compound 5] | 16 nM | 14 nM | 71 nM | 1200 nM | 791 nM | 18800 nM |
| CC(C)(O)C#Cc1cc2c(-c3cn[nH]c3)cn(CC(C)(C)O)c2cn1 [Compound 14] | 18 nM | 108 nM | 132 nM | 1400 nM | 1330 nM | 12100 nM |
| CC(C)(O)C#Cc1cc2c(-c3cn[nH]c3)cn(CC(F)(F)F)c2cn1 [Compound 28] |  | 43 nM | 338 nM | 1530 nM | 1020 nM | 7380 nM |
| CCCC(C)n1cc(-c2cn[nH]c2)c2cc(C#CC(C)(C)O)ncc21 (stereo not drawn) [Compound 23] | 57 nM | 43 nM | 302 nM | 848 nM | 625 nM | 1080 nM |
| OC1(C#Cc2cc3c(-c4cn[nH]c4)c[nH]c3cn2)CCCC1 [Compound 6] | 19 nM | 26 nM | 1120 nM | 6880 nM | 10700 nM | > 30000 nM |
| CCn1cc(-c2cn[nH]c2)c2cc(C#CC3(O)CCCC3)ncc21 [Compound 10] | 9 nM | 23 nM | 113 nM | 1210 nM | 3180 nM | 5070 nM |
| CCC(CC)n1cc(-c2cn[nH]c2)c2cc(C#CC(C)(C)O)ncc21 [Compound 24] | 48 nM | 65 nM | 191 nM | 744 nM | 519 nM | 647 nM |
| CC(C)(O)C#Cc1cc2c(-c3cn[nH]c3)cn(Cc3ccccc3)c2cn1 [Compound 22] | 224 nM | 232 nM | 1770 nM | 6080 nM | 5530 nM | 5230 nM |
| Cn1cc(-c2cn[nH]c2)c2cc(C#CC3(O)CCCC3)ncc21 [Compound 8] | 21 nM | 7 nM | 406 nM | 3330 nM | 5860 nM | 9540 nM |
| CCn1cc(-c2c[nH]nc2C#N)c2cc(C#CC(C)(C)O)ncc21 [Compound 31] | 9 nM | 35 nM | 214 nM | 2380 nM | 3940 nM | 4900 nM |
| CC(C)(O)C#Cc1cc2c(-c3cn[nH]c3)cn(CCO)c2cn1 [Compound 12] | 47 nM | 22 nM | 185 nM | 1500 nM | 2450 nM | 8500 nM |
| CC(C)(O)C#Cc1cc2c(-c3cn[nH]c3)cn(CC3CCOC3)c2cn1 (stereo not drawn) [Compound 2] | 129 nM | 83 nM | 829 nM | 3950 nM | 4340 nM | 21300 nM |
